Among the data in PubChem BioAssay AID214 (DTP/NCI, 2004) are T/C values, retold here.

Structures are written as SMILES. Several values for one entry are separate records, joined by “and”; a condition that tells them apart may be missing. Equal entries are not always repeated. Results filed as inconclusive are left out.

In the assay the test system is B6C3F1 mice, colon carcinoma 38 s.c., T/C. Description: NCI In Vivo Anticancer Drug Screen. Data for tumor model Colon Carcinoma 38 (subcutaneous) in B6C3F1 mice. To be noted: higher = larger tumour. The method, then:
The antitumor activity of compounds was measured in mice bearing transplantable tumors. Survival or tumor size were measured and the results are expressed as the measurement made in the treated group (T) divided by the measurement made in the vehicle treated control group (C). The tumor model used in this assay is Colon Carcinoma 38 (subcutaneous) in B6C3F1 mice

[1] abbreviates: endpoint: median tumor weight (est.), dose: 50.0 mg/kg/injection, schedule: Q07DX002 (ip), vehicle: Klucel (hydroxypropylcellulose) (HPC).
The mark [2] stands for this setting: endpoint: median tumor weight (est.), dose: 100.0 mg/kg/injection, schedule: Q07DX002 (ip), vehicle: Klucel (hydroxypropylcellulose) (HPC).
[3] abbreviates: endpoint: median tumor weight (est.), dose: 200.0 mg/kg/injection, schedule: Q07DX002 (ip), vehicle: Klucel (hydroxypropylcellulose) (HPC).
Where [4] appears, read: endpoint: median tumor weight (est.), dose: 400.0 mg/kg/injection, schedule: Q07DX002 (ip), vehicle: Klucel (hydroxypropylcellulose) (HPC).
Where [5] appears, read: endpoint: median tumor weight (est.), dose: 800.0 mg/kg/injection, schedule: Q07DX002 (ip), vehicle: Klucel (hydroxypropylcellulose) (HPC).

With `O=C(O)Cc1cccc2c(=O)cc(-c3ccccc3)oc12`, the T/C (endpoint: median tumor weight (est.), dose: 33.0 mg/kg/injection, schedule: Q07DX002 (ip), vehicle: suspension in saline) is 67 % of control; the T/C (endpoint: median tumor weight (est.), dose: 63.0 mg/kg/injection, schedule: Q07DX002 (ip), vehicle: clinical formulation) was 109 % of control; the T/C (endpoint: median tumor weight (est.), dose: 63.0 mg/kg/injection, schedule: Q07DX002 (ip), vehicle: sodium bicarbonate) is 100 % of control; the T/C (endpoint: median tumor weight (est.), dose: 63.0 mg/kg/injection, schedule: Q07DX002 (iv), vehicle: clinical formulation) was 114 % of control; the T/C (endpoint: median tumor weight (est.), dose: 63.0 mg/kg/injection, schedule: Q07DX002 (iv), vehicle: sodium bicarbonate) is 90 % of control; the T/C (endpoint: median tumor weight (est.), dose: 66.0 mg/kg/injection, schedule: Q07DX002 (ip), vehicle: suspension in saline) was 89 % of control. The T/C reads like this: (endpoint: median tumor weight (est.), dose: 84.0 mg/kg/injection, schedule: Q07DX002 (ip), vehicle: clinical formulation) 91 % of control; (endpoint: median tumor weight (est.), dose: 84.0 mg/kg/injection, schedule: Q07DX002 (ip), vehicle: sodium bicarbonate) 155 % of control; (endpoint: median tumor weight (est.), dose: 84.0 mg/kg/injection, schedule: Q07DX002 (iv), vehicle: clinical formulation) 67 % of control; (endpoint: median tumor weight (est.), dose: 84.0 mg/kg/injection, schedule: Q07DX002 (iv), vehicle: sodium bicarbonate) 82 % of control; (endpoint: median tumor weight (est.), dose: 100.0 mg/kg/injection, schedule: Q07DX002 (ip), vehicle: suspension in saline) 90 % of control; (endpoint: median tumor weight (est.), dose: 112.0 mg/kg/injection, schedule: Q07DX002 (ip), vehicle: clinical formulation) 95 % of control. Further, the T/C by setting is: (endpoint: median tumor weight (est.), dose: 112.0 mg/kg/injection, schedule: Q07DX002 (iv), vehicle: clinical formulation) 74 % of control; (endpoint: median tumor weight (est.), dose: 112.0 mg/kg/injection, schedule: Q07DX002 (iv), vehicle: sodium bicarbonate) 84 % of control and 102 % of control; (endpoint: median tumor weight (est.), dose: 128.0 mg/kg/injection, schedule: Q07DX002 (ip), vehicle: water) 79 % of control; (endpoint: median tumor weight (est.), dose: 150.0 mg/kg/injection, schedule: Q07DX002 (ip), vehicle: clinical formulation) 14 % of control; (endpoint: median tumor weight (est.), dose: 150.0 mg/kg/injection, schedule: Q07DX002 (ip), vehicle: sodium bicarbonate) 101 % of control; (endpoint: median tumor weight (est.), dose: 150.0 mg/kg/injection, schedule: Q07DX002 (ip), vehicle: suspension in saline) 10 % of control. Also, the T/C is, setting by setting: (endpoint: median tumor weight (est.), dose: 150.0 mg/kg/injection, schedule: Q07DX002 (iv), vehicle: clinical formulation) 47 % of control; (endpoint: median tumor weight (est.), dose: 150.0 mg/kg/injection, schedule: Q07DX002 (iv), vehicle: sodium bicarbonate) 57 % of control; (endpoint: median tumor weight (est.), dose: 160.0 mg/kg/injection, schedule: Q07DX002 (ip), vehicle: water) 81 % of control; (endpoint: median tumor weight (est.), dose: 200.0 mg/kg/injection, schedule: Q07DX002 (ip), vehicle: sodium bicarbonate) 79 % of control and 87 % of control; (endpoint: median tumor weight (est.), dose: 200.0 mg/kg/injection, schedule: Q07DX002 (ip), vehicle: water) 25 % of control; (endpoint: median tumor weight (est.), dose: 250.0 mg/kg/injection, schedule: Q07DX002 (ip), vehicle: water) 13 % of control. The T/C is 77 % of control (endpoint: median tumor weight (est.), dose: 267.0 mg/kg/injection, schedule: Q07DX002 (iv), vehicle: sodium bicarbonate); 77 % of control (endpoint: median tumor weight (est.), dose: 356.0 mg/kg/injection, schedule: Q07DX002 (iv), vehicle: sodium bicarbonate); 78 % of control (endpoint: optimum tumor weight change, dose: 128.0 mg/kg/injection, schedule: Q07DX002 (ip), vehicle: water); 50 % of control (endpoint: optimum tumor weight change, dose: 160.0 mg/kg/injection, schedule: Q07DX002 (ip), vehicle: water); 72 % of control (endpoint: optimum tumor weight change, dose: 200.0 mg/kg/injection, schedule: Q07DX002 (ip), vehicle: water); 20 % of control (endpoint: optimum tumor weight change, dose: 250.0 mg/kg/injection, schedule: Q07DX002 (ip), vehicle: water).

Regarding `O=C(O)CSc1c(Cl)c(=O)oc2ccc(Cl)cc12`, the T/C is 73 % of control (endpoint: median tumor weight (est.), dose: 12.5 mg/kg/injection, schedule: Q07DX002 (ip), vehicle: Klucel (hydroxypropylcellulose) (HPC)); 58 % of control (endpoint: median tumor weight (est.), dose: 25.0 mg/kg/injection, schedule: Q07DX002 (ip), vehicle: Klucel (hydroxypropylcellulose) (HPC)); 57 % of control under setting [1]; 86 % of control under setting [2]; 67 % of control under setting [3].

As to `CC(CN1CC(=O)NC(=O)C1)N1CC(=O)NC(=O)C1` (centres undefined), the T/C under setting [2] was 82 % of control, the T/C under setting [3] is 40 % of control, the T/C under setting [4] is 2 % of control and the T/C under setting [5] was 1 % of control.

`CN(C)c1ccc2c(SCC(=O)OCC(=O)[C@@]3(O)CC[C@H]4[C@@H]5CCC6=CC(=O)C=C[C@]6(C)[C@H]5C(=O)C[C@@]43C)c3ccc(N(C)C)cc3nc2c1`: the T/C is 105 % of control under setting [1]; 78 % of control under setting [2]; 81 % of control under setting [3]; 82 % of control under setting [4]; 16 % of control under setting [5].
